Experiments:
E. faecalis ATCC 29212 [1] = assay: MIC of quinolone compounds (Test Example 2); format: cell-based; details: Enterococcus faecalis, ATCC29212, procedure of Test Example 1
Description: (§1) Minimal inhibitory concentration (MIC: μg/ml) against different strains of bacteria was assayed according to the standard method recommended by CLSI (clinical and laboratory standards institute). Samples were prepared from test compound solution in DMSO (1280 μg/mL) by two fold (serial) dilution with DMSO. The sample was added to bacteria suspension at the concentration of 5%, and MIC was determined. Mueller Hinton Broth, which has been adjusted for cation concentration, was used for culture media in this test. The inoculation concentration was about 5×10^5 CFU/mL.
(§2) The quinolone compounds of the invention were tested for antimicrobial activity according to the procedure in Test Example 1.

E. faecalis SR7914 [2] = assay: MIC of quinolone compounds (Test Example 2); format: cell-based; details: Enterococcus faecalis, procedure of Test Example 1
Description: as §1, §2

S. aureus FDA 209P [3] = assay: MIC of quinolone compounds (Test Example 2); format: cell-based; details: Staphylococcus aureus, FDA209P, procedure of Test Example 1
Description: as §1, §2

S. aureus SR3637 = assay: MIC of quinolone compounds (Test Example 2); format: cell-based; details: Staphylococcus aureus, procedure of Test Example 1
Description: as §1, §2

E. faecalis ATCC 29212 [4] = assay: MIC by CLSI standard method (Test Example 1); format: cell-based; details: Enterococcus faecalis, ATCC29212, cation-adjusted Mueller Hinton Broth, about 5×10^5 CFU/mL
Description: as §1

E. faecalis SR7914 [5] = assay: MIC by CLSI standard method (Test Example 1); format: cell-based; details: Enterococcus faecalis, cation-adjusted Mueller Hinton Broth, about 5×10^5 CFU/mL
Description: as §1

E. faecium SR7917 = assay: MIC by CLSI standard method (Test Example 1); format: cell-based; details: Enterococcus faecium, cation-adjusted Mueller Hinton Broth, about 5×10^5 CFU/mL
Description: as §1

S. aureus ATCC 700787 = assay: MIC by CLSI standard method (Test Example 1); format: cell-based; details: Staphylococcus aureus, ATCC700787, cation-adjusted Mueller Hinton Broth, about 5×10^5 CFU/mL
Description: as §1

S. aureus FDA 209P [6] = assay: MIC by CLSI standard method (Test Example 1); format: cell-based; details: Staphylococcus aureus, FDA209P, cation-adjusted Mueller Hinton Broth, about 5×10^5 CFU/mL
Description: as §1

S. aureus smith = assay: MIC by CLSI standard method (Test Example 1); format: cell-based; details: Staphylococcus aureus, cation-adjusted Mueller Hinton Broth, about 5×10^5 CFU/mL
Description: as §1

Row | Compound | MIC (E. faecalis ATCC 29212 [1]) | MIC (E. faecalis SR7914 [2]) | MIC (S. aureus FDA 209P [3]) | MIC (S. aureus SR3637) | melting point | MIC (E. faecalis ATCC 29212 [4]) | MIC (E. faecalis SR7914 [5]) | MIC (E. faecium SR7917) | MIC (S. aureus ATCC 700787) | MIC (S. aureus FDA 209P [6]) | MIC (S. aureus smith)
1 | COc1c(N2CCNOCC2)c(F)cc2c(=O)c(C(=O)O)cn(C3CC3)c12 [Compound (71)] | ≤ 1 µg/mL | ≤ 1 µg/mL | ≤ 1 µg/mL | ≤ 1 µg/mL | 222 to 224 °C | – | – | – | – | – | –
2 | O=C(NC[C@H]1CN(c2cc(F)c(N3CCn4c(=O)c5cccnc5n4CC3)c(F)c2)C(=O)O1)C(F)F [Example 82] | – | – | – | – | – | ≤ 1 µg/mL | ≤ 1 µg/mL | ≤ 1 µg/mL | ≤ 1 µg/mL | ≤ 1 µg/mL | ≤ 1 µg/mL
3 | O=C(NC[C@H]1CN(c2cc(F)c(N3CCNN(C(=O)Nc4ccncc4)CC3)c(F)c2)C(=O)O1)C(F)F [Example 86] | – | – | – | – | – | ≤ 1 µg/mL | ≤ 1 µg/mL | ≤ 1 µg/mL | ≤ 1 µg/mL | ≤ 1 µg/mL | ≤ 1 µg/mL
4 | CC(=O)NC[C@H]1CN(c2cc(F)c(N3CCn4c(=O)c5cccnc5n4CC3)c(F)c2)C(=O)O1 [Example 81] | – | – | – | – | – | ≤ 1 µg/mL | ≤ 1 µg/mL | ≤ 1 µg/mL | ≤ 1 µg/mL | ≤ 1 µg/mL | ≤ 1 µg/mL
5 | O=C(NC[C@H]1CN(c2cc(F)c(N3CCNN(C(=O)Nc4nccs4)CC3)c(F)c2)C(=O)O1)C(F)F [Example 84] | – | – | – | – | – | ≤ 1 µg/mL | ≤ 1 µg/mL | ≤ 1 µg/mL | ≤ 1 µg/mL | ≤ 1 µg/mL | ≤ 1 µg/mL
6 | CC(=O)NC[C@H]1CN(c2cc(F)c(N3CCNN(C(=O)CO)CC3)c(F)c2)C(=O)O1 [Example 91] | – | – | – | – | – | ≤ 1 µg/mL | ≤ 1 µg/mL | ≤ 1 µg/mL | ≤ 1 µg/mL | ≤ 1 µg/mL | ≤ 1 µg/mL
7 | CC(=O)NC[C@H]1CN(c2cc(F)c(N3CCNN(C(=O)Nc4nccs4)CC3)c(F)c2)C(=O)O1 [Example 83] | – | – | – | – | – | ≤ 1 µg/mL | ≤ 1 µg/mL | ≤ 1 µg/mL | ≤ 1 µg/mL | ≤ 1 µg/mL | ≤ 1 µg/mL
8 | CC(=O)NC[C@H]1CN(c2cc(F)c(N3CCNN(C(=O)Nc4ccncc4)CC3)c(F)c2)C(=O)O1 [Example 85] | – | – | – | – | – | ≤ 1 µg/mL | ≤ 1 µg/mL | ≤ 1 µg/mL | ≤ 1 µg/mL | ≤ 1 µg/mL | ≤ 1 µg/mL

Source: US8148362B2, “Compound having heterocyclic ring” (Research Foundation Itsuu Laboratory, priority 2006, dated 2012)
